This note sets out measurements from PubChem BioAssay (NCI).

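Dose response: 5 concentrations. Exposure: 48 h. Format: 96-well plates. Endpoint: linear interpolation; highest concentration if not reached. GI50 is the concentration that inhibits growth by half. TGI is the concentration that stops growth completely.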 Activity calls are given as the source filed them. No stated cut-off is given here; in the data, active means GI50 below about 0.43 µM; inactive means the rest.

Holding throughout (assay): NCI-60 cell line screen, 48 h
Assay [1] concerns CAKI-1 renal.
The test system of assay [2] is NCI-H460 lung.
Assay [3] concerns HCC-2998 colon.
In assay [4] the test system is SF-539 CNS.
In assay [5] the test system is HCT-116 colon.
The subject of assay [6] is U251 CNS.
The subject of assay [7] is MOLT-4 leukemia.
The test system of assay [8] is SK-OV-3 ovarian.

Consider `O=C(O)CCSC(=O)Nc1ccc([N+](=O)[O-])cc1`, for which the TGI in assay [1], in assay [2], in assay [3], in assay [4], in assay [5] and in assay [6] was greater than 100 µM in each case. The compound also had a TGI in assay [7] greater than 100 µM.
Regarding `O=C1c2ccccc2C(=O)N1CCc1ncc[nH]1`, the TGI in assay [1], in assay [2], in assay [4], in assay [5] and in assay [7] was greater than 100 µM each time.
On to `Cc1ccc(C(=O)N(CCCN)C(c2oc3cc(Cl)ccc3c(=O)c2Cc2ccccc2)C(C)C)cc1` (stereo not drawn), for which the GI50 is less than 0.01 µM in assay [8]; 0.0492 µM in assay [1]; less than 0.01 µM in assay [2]; less than 0.01 µM in assay [3]; less than 0.01 µM in assay [4]; less than 0.01 µM in assay [6]. Further, the GI50 in assay [7] was less than 0.01 µM. Besides, the TGI in assay [8] came to 1.57 µM; in assay [1] it was 1.94 µM; in assay [2], 1.15 µM; in assay [3], 1.58 µM; in assay [6] it was 1.37 µM; in assay [7], 2.94 µM.
For the compound `COC1(OC)CC2OC1C1N=NN(C(=O)OC(C)(C)C)C21` (stereo not drawn), the TGI in assay [8], in assay [1], in assay [2], in assay [3], in assay [4] and in assay [6] was greater than 100 µM in each case. The compound further displayed a TGI in assay [7] greater than 100 µM.
`O=C1CCC(N2C(=O)c3ccccc3C2=O)C(=O)N1CO` (stereo not drawn): the GI50 in assay [8] is greater than 100 µM; in assay [1], 94.7 µM; in assay [2], greater than 100 µM; in assay [4], 30.8 µM; in assay [5] it was 21.2 µM; in assay [6], 90.8 µM. Further, the GI50 in assay [7] was 36.2 µM. Also, the TGI was greater than 100 µM in assay [8]; greater than 100 µM in assay [1]; greater than 100 µM in assay [2]; 93.6 µM in assay [4]; 45.4 µM in assay [5]; greater than 100 µM in assay [6]. Also, in assay [7], the TGI was greater than 100 µM.
`C[C@@H]1OC(=O)N2CCCC(=C3SCCCS3)C12` (stereo partly drawn): the TGI in assay [8], in assay [2], in assay [4], in assay [5], in assay [6] and in assay [7] was greater than 100 µM each time.
Turning to `O=C(CC1(O)C(=O)Nc2c(Cl)ccc(Cl)c21)c1ccc(F)cc1` (stereo not drawn), the TGI in assay [8] was greater than 100 µM; in assay [1], greater than 100 µM; in assay [2], greater than 100 µM; in assay [3], greater than 100 µM; in assay [6] it was greater than 100 µM; in assay [7], 95.6 µM.
On to `O=c1cc(-c2ccccc2)oc2cc(OC/C(=N/O)c3ccccc3)ccc12`, for which the GI50 is 12.1 µM in assay [8]; 12.8 µM in assay [1]; 14.2 µM in assay [2]; 30.7 µM in assay [3]; 10.8 µM in assay [4]; 10.1 µM in assay [6]. Also, the GI50 in assay [7] is greater than 50 µM. Besides, the TGI is 32.5 µM in assay [8]; greater than 50 µM in assay [1]; greater than 50 µM in assay [2]; greater than 50 µM in assay [3]; 23.6 µM in assay [4]; 20 µM in assay [6]. Besides, the TGI in assay [7] was greater than 50 µM.
As to `COc1ccc(C(=O)C#Cc2cnc(OC)nc2OC)cc1`, the TGI in assay [8] is 27.2 µM; in assay [2] it was 10.8 µM; in assay [3], 3.83 µM; in assay [5], 2.75 µM; in assay [6], 2.62 µM. Besides, the result in assay [8], in assay [2], in assay [3] and in assay [5] was inactive. The figures for the GI50 in assay [1], in assay [6] and in assay [7] were 25300 µM, 58900 µM and 17900 µM, respectively.
As to `O=C(O)C(CS)Nc1c2ccccc2nc2ccccc12` (stereo not drawn), the TGI in assay [8], in assay [1], in assay [2], in assay [3], in assay [4] and in assay [6] was greater than 100 µM each time. This compound yielded a TGI in assay [7] greater than 100 µM.
As to `Nc1c(-c2ccc(Cl)cc2)[n+]([O-])c2ccccc2[n+]1[O-]`, the TGI in assay [8], in assay [1], in assay [2], in assay [3], in assay [4] and in assay [6] was greater than 100 µM each time. This compound registered a TGI in assay [7] greater than 100 µM.
`O=C(N/C(=C\c1cccc([N+](=O)[O-])c1)c1nc2ccc([N+](=O)[O-])cc2[nH]1)c1ccccc1`: the TGI in assay [8] is greater than 100 µM; in assay [1], greater than 100 µM; in assay [3], greater than 100 µM; in assay [4], greater than 100 µM; in assay [6], greater than 100 µM; in assay [7] it was 51.4 µM.
For `CC(C)(CO)N1CCN(C(=S)Nc2ccccc2)CC1`, the TGI in assay [8], in assay [1], in assay [2], in assay [4], in assay [5] and in assay [6] was greater than 100 µM throughout.
On to `O=C(O)/C=C(\c1nc2ccc([N+](=O)[O-])cc2[nH]1)c1cc(Cl)ccc1O`, for which the GI50 was 2.44 µM in assay [8]; 3.03 µM in assay [2]; 4.13 µM in assay [3]; 3.1 µM in assay [4]; 2.35 µM in assay [5]; 3.21 µM in assay [6]. Moreover, in assay [7], the GI50 is 2.26 µM. Besides, the TGI in assay [8] came to 11.8 µM; in assay [2], 17.9 µM; in assay [3], 29.4 µM; in assay [4], 17.8 µM; in assay [5], 7.03 µM; in assay [6] it was 19.2 µM. In assay [7], this compound came in with a TGI of 9.7 µM.
Consider `COc1cc(C(=O)CBr)c(OC)cc1C`, for which the TGI in assay [8], in assay [1], in assay [4], in assay [5], in assay [6] and in assay [7] was greater than 100 µM in each case.
Regarding `O=C1c2cccc([N+](=O)[O-])c2C(=O)N1c1ncn[nH]1`, the TGI in assay [8] was greater than 100 µM; in assay [1], greater than 100 µM; in assay [2] it was greater than 100 µM; in assay [4], 36.8 µM; in assay [5], greater than 100 µM; in assay [6], greater than 100 µM. The TGI in assay [7] was greater than 100 µM.
As for `N#CC(C#N)=C1Nc2ccccc2S1`, the GI50 was 31.5 µM in assay [8]; 24.5 µM in assay [1]; 32 µM in assay [2]; 36.3 µM in assay [4]; 37.7 µM in assay [5]; 43.6 µM in assay [6]. Further, the GI50 in assay [7] is 33.3 µM. Further, the TGI is greater than 100 µM in assay [8]; 70.9 µM in assay [1]; greater than 100 µM in assay [2]; 93.7 µM in assay [4]; greater than 100 µM in assay [5]; greater than 100 µM in assay [6]. For the same compound, the TGI in assay [7] is greater than 100 µM.
As for `O=S(=O)(NC1=NCCN1C(=S)SN1CCn2c1nsc2=S)c1cccc(Cl)c1`, the GI50 in assay [1] is 6.24 µM; in assay [2], 22.5 µM; in assay [3], 22.5 µM; in assay [4] it was 19.4 µM; in assay [5], 13.2 µM; in assay [6] it was 13.6 µM. In assay [7], the GI50 is 12.8 µM. The TGI was 23.5 µM in assay [1]; 72.9 µM in assay [2]; 37.3 µM in assay [3]; 34.2 µM in assay [4]; 28.1 µM in assay [5]; 27.8 µM in assay [6]. Further, the TGI in assay [7] was greater than 100 µM.
Take `CC(C)(C)c1cc(CCC(=O)Nc2ccc(Cl)cc2)nc(NC#N)n1`: the TGI in assay [8], in assay [1], in assay [2], in assay [4], in assay [5] and in assay [6] was greater than 100 µM in each case. The compound further gave a TGI in assay [7] greater than 100 µM.
Regarding `CCOC(=O)/C(C#N)=C/c1[nH]c(C(=O)OCc2ccccc2)c(C)c1C`, the TGI in assay [8], in assay [1], in assay [2], in assay [3], in assay [4] and in assay [6] was greater than 100 µM in each case. In addition, the TGI in assay [7] is greater than 100 µM.
`O=C(CC1C(=O)NN(c2ccc(Br)cc2)C1=O)c1cc(O)ccc1O` (stereo not drawn): the GI50 in assay [1] is 14.4 µM; in assay [2], 23 µM; in assay [4] it was 11.3 µM; in assay [5], 26.2 µM; in assay [6], 14.2 µM; in assay [7], greater than 50 µM. The TGI is 35.7 µM in assay [1]; greater than 50 µM in assay [2]; 27.3 µM in assay [4]; greater than 50 µM in assay [5]; 36 µM in assay [6]; greater than 50 µM in assay [7].
As for `C/C(CC(=O)Nc1cc(C)ccc1C)=N\NC(=O)c1ccncc1`, the TGI in assay [8], in assay [2], in assay [3], in assay [4], in assay [5] and in assay [6] was greater than 100 µM throughout. In addition, the TGI in assay [7] is greater than 100 µM.
